Laboratory results taken from patent US20260347338A1, “PYRIMIDINE/PYRIDINE DERIVATIVES OR SALTS THEREOF AND PHARMACEUTICAL COMPOSITIONS COMPRISING THE SAME” (YUHAN CORPORATION, priority 2023, published 2026).
Where a name gives a salt, the structure may show the parent alone.

What follows are compounds tested against T1, human recombinant HPK1 (Homo sapiens, UniProt Q92918) (assay: Inhibitory activity against human recombinant HPK1 (TR-FRET)). Conditions: ULight-p70S6K peptide, ATP at Km, room temperature, 1 hour, 0.32 to 1000 nM compound.
T1 construct: purchased BPS Bioscience
Type: biochemical
Method in brief: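 Recombinant human HPK1 with ULight-p70S6K peptide and ATP at Km, 1 h at room temperature in HEPES pH 7.4 buffer with Mg2+, Mn2+, EGTA, DTT; compounds 0.32–1000 nM final. EDTA stop, Eu-anti-phosphopeptide TR-FRET read (665 nm); IC50 from % inhibition versus DMSO, binned A–D at 10, 50, 100 nM.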

T1 sequence (Q92918 whole entry): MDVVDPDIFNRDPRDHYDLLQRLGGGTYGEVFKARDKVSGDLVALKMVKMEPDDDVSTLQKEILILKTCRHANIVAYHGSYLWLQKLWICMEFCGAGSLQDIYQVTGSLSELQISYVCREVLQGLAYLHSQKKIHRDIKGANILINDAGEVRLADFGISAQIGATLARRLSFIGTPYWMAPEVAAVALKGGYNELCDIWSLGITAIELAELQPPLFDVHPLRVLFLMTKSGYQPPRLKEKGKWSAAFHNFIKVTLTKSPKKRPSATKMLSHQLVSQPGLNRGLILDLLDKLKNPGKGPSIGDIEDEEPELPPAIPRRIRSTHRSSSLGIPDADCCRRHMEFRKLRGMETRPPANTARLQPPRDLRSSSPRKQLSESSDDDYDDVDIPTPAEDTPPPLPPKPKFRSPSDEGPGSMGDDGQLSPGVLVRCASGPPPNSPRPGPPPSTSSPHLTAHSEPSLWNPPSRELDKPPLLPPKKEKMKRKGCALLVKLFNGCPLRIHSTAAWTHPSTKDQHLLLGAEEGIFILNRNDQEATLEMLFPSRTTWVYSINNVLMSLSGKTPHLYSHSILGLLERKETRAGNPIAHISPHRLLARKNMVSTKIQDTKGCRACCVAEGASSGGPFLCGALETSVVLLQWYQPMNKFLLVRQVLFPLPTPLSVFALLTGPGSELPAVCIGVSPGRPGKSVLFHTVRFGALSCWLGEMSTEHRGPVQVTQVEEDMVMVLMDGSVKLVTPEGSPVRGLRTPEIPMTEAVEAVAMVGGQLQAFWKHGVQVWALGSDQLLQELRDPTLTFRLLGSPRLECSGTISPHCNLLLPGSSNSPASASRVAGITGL

Structure (SMILES) | IC50
COc1cccc(F)c1-c1nccc(Nc2cc(N3CC[C@@H](NC(C)=O)C3)c(-c3cnn(C4CCOCC4)c3)cn2)n1 [Example 126, (R)-N-(1-(2-((2-(2-fluoro-6-methoxyphenyl)pyrimidin-4-yl)amino)-5-(1-(tetrahydro-2H-pyran-4-yl)-1H-pyrazol-4-yl)pyridin-4-yl)pyrrolidin-3-yl)acetamide] | 10 to 50 nM
N[C@H]1CCCN(c2cc(Nc3cccc(N4CCOC4=O)n3)ncc2-c2cnn(C3CCOCC3)c2)C1 [Example 127, (S)-3-(6-((4-(3-aminopiperidin-1-yl)-5-(1-(tetrahydro-2H-pyran-4-yl)-1H-pyrazol-4-yl)pyridin-2-yl)amino)pyridin-2-yl)oxazolidin-2-one hydrochloride] | 10 to 50 nM
COc1cccc(F)c1-c1nccc(Nc2cc(N3CC[C@H](NC(C)=O)C3)c(-c3cnn(C4CCOCC4)c3)cn2)n1 [Example 128, (S)-N-(1-(2-((2-(2-fluoro-6-methoxyphenyl)pyrimidin-4-yl)amino)-5-(1-(tetrahydro-2H-pyran-4-yl)-1H-pyrazol-4-yl)pyridin-4-yl)pyrrolidin-3-yl)acetamide] | > 100 nM
COc1cccc(F)c1-c1nccc(Nc2cc(N3CCC[C@H](N)C3)c(-c3cn(C)nc3C(F)(F)F)cn2)n1 [Example 131, (S)-N-(4-(3-aminopiperidin-1-yl)-5-(1-methyl-3-(trifluoromethyl)-1H-pyrazol-4-yl)pyridin-2-yl)-2-(2-fluoro-6-methoxyphenyl)pyrimidin-4-amine hydrochloride] | 50 to 100 nM
N[C@H]1CCCN(c2cc(Nc3cccc(N4CCOC4=O)n3)ncc2-c2ccc(N3CCOCC3)nc2)C1 [Example 138, (S)-3-(6-((4-(3-aminopiperidin-1-yl)-6′-morpholino-[3,3′-bipyridin]-6-yl)amino)pyridin-2-yl)oxazolidin-2-one hydrochloride] | 50 to 100 nM
COc1cccc(F)c1-c1nc(Nc2cc(N3CCC[C@H](O)C3)c(-c3cnn(C(F)F)c3)cn2)ccc1C(=O)N(C)C [Example 141, 6-((5-(1-(difluoromethyl)-1H-pyrazol-4-yl)-4-((S)-3-hydroxypiperidin-1-yl)pyridin-2-yl)amino)-2-(2-fluoro-6-methoxyphenyl)-N,N-dimethylnicotinamide] | > 100 nM
COc1cccc(F)c1-c1nc(Nc2cc(N3CCC[C@H](O)C3)c(-c3cnn(CC(F)(F)F)c3)cn2)ccc1C(N)=O [Example 143, 2-(2-fluoro-6-methoxyphenyl)-6-((4-((S)-3-hydroxypiperidin-1-yl)-5-(1-(2,2,2-trifluoroethyl)-1H-pyrazol-4-yl)pyridin-2-yl)amino)nicotinamide] | ≤ 10 nM
COCCn1cc(-c2cnc(Nc3ccc(C(N)=O)c(-c4c(F)cccc4OC)n3)cc2N2CCC[C@H](O)C2)cn1 [Example 144, 2-(2-fluoro-6-methoxyphenyl)-6-((4-((S)-3-hydroxypiperidin-1-yl)-5-(1-(2-methoxyethyl)-1H-pyrazol-4-yl)pyridin-2-yl)amino)nicotinamide] | ≤ 10 nM
COc1cccc(F)c1-c1nc(Nc2cc(N3CCC[C@H](O)C3)c(-c3cnn(C(F)F)c3)cn2)ccc1[N+](=O)[O-] [Example 145, (3S)-1-(5-(1-(difluoromethyl)-1H-pyrazol-4-yl)-2-((6-(2-fluoro-6-methoxyphenyl)-5-nitropyridin-2-yl)amino)pyridin-4-yl)piperidin-3-ol] | ≤ 10 nM
COc1cccc(F)c1-c1nc(Nc2cc(N3CCC[C@H](N)C3)c(-c3cnn(C(F)F)c3)cn2)ccc1[N+](=O)[O-] [Example 146, 4-((S)-3-aminopiperidin-1-yl)-5-(1-(difluoromethyl)-1H-pyrazol-4-yl)-N-(6-(2-fluoro-6-methoxyphenyl)-5-nitropyridin-2-yl)pyridin-2-amine hydrochloride] | ≤ 10 nM
COc1cccc(F)c1-c1nccc(Nc2cc(N3CCC(CCN(C)C)CC3)c(-c3cnn(C(F)F)c3)cn2)n1 [Example 147, N-(5-(1-(difluoromethyl)-1H-pyrazol-4-yl)-4-(4-(2-(dimethylamino)ethyl)piperidin-1-yl)pyridin-2-yl)-2-(2-fluoro-6-methoxyphenyl)pyrimidin-4-amine] | ≤ 10 nM
COc1cccc(F)c1-c1nccc(Nc2cc(N3CCC(CCN(C)C)CC3)c(-c3cnn(CC(F)(F)F)c3)cn2)n1 [Example 148, N-(4-(4-(2-(dimethylamino)ethyl)piperidin-1-yl)-5-(1-(2,2,2-trifluoroethyl)-1H-pyrazol-4-yl)pyridin-2-yl)-2-(2-fluoro-6-methoxyphenyl)pyrimidin-4-amine] | ≤ 10 nM
COc1cccc(F)c1-c1nccc(Nc2cc(N3CCC(CCN(C)C)CC3)c(-c3ccc(N4CCOCC4)nc3)cn2)n1 [Example 149, 4-(4-(2-(dimethylamino)ethyl)piperidin-1-yl)-N-(2-(2-fluoro-6-methoxyphenyl)pyrimidin-4-yl)-6′-morpholino-[3,3′-bipyridin]-6-amine] | ≤ 10 nM
COc1cccc(F)c1-c1nc(Nc2cc(N3CCC[C@H](O)C3)c(-c3cnn(C(F)F)c3)cn2)ccc1N [Example 150, (3S)-1-(2-((5-amino-6-(2-fluoro-6-methoxyphenyl)pyridin-2-yl)amino)-5-(1-(difluoromethyl)-1H-pyrazol-4-yl)pyridin-4-yl)piperidin-3-ol] | ≤ 10 nM
COc1cccc(F)c1-c1nc(Nc2cc(N3CCC[C@H](N)C3)c(-c3cnn(C(F)F)c3)cn2)ccc1N [Example 151, N^2-(4-((S)-3-aminopiperidin-1-yl)-5-(1-(difluoromethyl)-1H-pyrazol-4-yl)pyridin-2-yl)-6-(2-fluoro-6-methoxyphenyl)pyridin-2,5-diamine hydrochloride] | ≤ 10 nM
COc1cccc(F)c1-c1nc(Nc2cc(N3CCC[C@H](N)C3)c(-c3cnn(CC(F)F)c3)cn2)ccc1[N+](=O)[O-] [Example 152, 4-((S)-3-aminopiperidin-1-yl)-5-(1-(2,2-difluoroethyl)-1H-pyrazol-4-yl)-N-(6-(2-fluoro-6-methoxyphenyl)-5-nitropyridin-2-yl)pyridin-2-amine hydrochloride] | ≤ 10 nM

Other lines, results leading:

IC50 | Structure (SMILES)
≤ 10 nM | COc1cccc(F)c1-c1nc(Nc2cc(N3CCC[C@H](N)C3)c(-c3cnn(C4CCOCC4)c3)cn2)ccc1C(N)=O [Example 129, 6-((4-((S)-3-aminopiperidin-1-yl)-5-(1-(tetrahydro-2H-pyran-4-yl)-1H-pyrazol-4-yl)pyridin-2-yl)amino)-2-(2-fluoro-6-methoxyphenyl)nicotinamide hydrochloride]
≤ 10 nM | COc1cccc(F)c1-c1nc(Nc2cc(N3CCC[C@H](N)C3)c(-c3cnn(C4CCOCC4)c3)cn2)ccc1C(=O)N(C)C [Example 130, 6-((4-((S)-3-aminopiperidin-1-yl)-5-(1-(tetrahydro-2H-pyran-4-yl)-1H-pyrazol-4-yl)pyridin-2-yl)amino)-2-(2-fluoro-6-methoxyphenyl)-N,N-dimethylnicotinamide hydrochloride]
≤ 10 nM | COc1cccc(F)c1-c1nccc(Nc2cc(N3CCC[C@H](N)C3)c(-c3cnn(CC(=O)N(C)C)c3)cn2)n1 [Example 132, (S)-2-(4-(4-(3-aminopiperidin-1-yl)-6-((2-(2-fluoro-6-methoxyphenyl)pyrimidin-4-yl)amino)pyridin-3-yl)-1H-pyrazol-1-yl)-N,N-dimethylacetamide hydrochloride]
≤ 10 nM | COc1cccc(F)c1-c1nccc(Nc2cc(N3CCC[C@H](N)C3)c(-c3cnn(CCO)c3)cn2)n1 [Example 133, (S)-2-(4-(4-(3-aminopiperidin-1-yl)-6-((2-(2-fluoro-6-methoxyphenyl)pyrimidin-4-yl)amino)pyridin-3-yl)-1H-pyrazol-1-yl)ethan-1-ol hydrochloride]
≤ 10 nM | COc1cccc(F)c1-c1nccc(Nc2cc(N3CCC[C@H](N)C3)c(-c3cnn(CC(F)F)c3)cn2)n1 [Example 134, (S)-N-(4-(3-aminopiperidin-1-yl)-5-(1-(2,2-difluoroethyl)-1H-pyrazol-4-yl)pyridin-2-yl)-2-(2-fluoro-6-methoxyphenyl)pyrimidin-4-amine hydrochloride]
≤ 10 nM | COc1cccc(F)c1-c1nccc(Nc2cc(N3CCC4(CCN(C)C4)CC3)c(-c3cnn(C(F)F)c3)cn2)n1 [Example 135, N-(5-(1-(difluoromethyl)-1H-pyrazol-4-yl)-4-(2-methyl-2,8-diazaspiro[4.5]decan-8-yl)pyridin-2-yl)-2-(2-fluoro-6-methoxyphenyl)pyrimidin-4-amine]
≤ 10 nM | COc1cccc(F)c1-c1nccc(Nc2cc(N3CCC4(CCN(C)C4)CC3)c(-c3ccc(N4CCOCC4)nc3)cn2)n1 [Example 137, N-(2-(2-fluoro-6-methoxyphenyl)pyrimidin-4-yl)-4-(2-methyl-2,8-diazaspiro[4.5]decan-8-yl)-6′-morpholino-[3,3′-bipyridin]-6-amine]
≤ 10 nM | COc1cccc(F)c1-c1nc(Nc2cc(N3CCC[C@H](O)C3)c(C#CC3CCOCC3)cn2)ccc1C(=O)O [Example 139, 2-(2-fluoro-6-methoxyphenyl)-6-((4-((S)-3-hydroxypiperidin-1-yl)-5-((tetrahydro-2H-pyran-4-yl)ethynyl)pyridin-2-yl)amino)nicotinic acid]
≤ 10 nM | COc1cccc(F)c1-c1nc(Nc2cc(N3CCC[C@H](O)C3)c(C#CC3CCOCC3)cn2)ccc1C(N)=O [Example 140, 2-(2-fluoro-6-methoxyphenyl)-6-((4-((S)-3-hydroxypiperidin-1-yl)-5-((tetrahydro-2H-pyran-4-yl)ethynyl)pyridin-2-yl)amino)nicotinamide]
≤ 10 nM | COc1cccc(F)c1-c1nc(Nc2cc(N3CCC[C@H](O)C3)c(-c3cnn(C(F)F)c3)cn2)ccc1C(N)=O [Example 142, 6-((5-(1-(difluoromethyl)-1H-pyrazol-4-yl)-4-((S)-3-hydroxypiperidin-1-yl)pyridin-2-yl)amino)-2-(2-fluoro-6-methoxyphenyl)nicotinamide]
